In ChEMBL document CHEMBL4622910, “Design, synthesis and evaluation of pyrazolopyrimidinone derivatives as novel PDE9A inhibitors for treatment of Alzheimer's disease” (Bioorg Med Chem Lett, 2020):
Converted amounts (≈) assume the structure as drawn.

Experiments:
[1] = Solubility of the compound in water; format: physicochemical
[2] = species on record: Homo sapiens; test: Selectivity for PDE1 (unknown origin) over PDE9 (unknown origin)
[3] = species on record: Homo sapiens; test: Selectivity for PDE5 (unknown origin) over PDE9 (unknown origin)
[4] = Half life in rat liver microsomes; format: ADME, Microsome
[5] = Hepatic clearance in rat liver microsomes; format: ADME, Microsome
[6] = Metabolic stability in rat liver microsomes; format: ADME, Microsome

Row | solubility [1] [µg/mL] | t1/2 [4] [min] | CLH [5] [mL/min/kg] | SMILES | other results
1 | 0.03 (≈ 0.0799 µM) | – | – | C[C@@H](Nc1nc2c(cnn2C2CCCC2)c(=O)[nH]1)C(=O)NC1=NCCS1 | –
2 | 20 (≈ 54.4 µM) | – | – | C[C@@H](Nc1nc2c(cnn2C2CCCC2)c(=O)[nH]1)C(=O)Nc1ccncc1 | –
3 | – | – | – | CC(Nc1nc2c(cnn2C2CCCC2)c(=O)[nH]1)c1ccc(Cl)cc1 (stereo unspecified) | Selectivity ratio [2]: 46; Selectivity ratio [3]: 31
4 | 6 (≈ 14.3 µM) | – | – | C[C@@H](Nc1nc2c(cnn2C2CCCC2)c(=O)[nH]1)C(=O)Nc1ccc2c(c1)CCC2=O | –
5 | 6.3 (≈ 14.5 µM) | – | – | C[C@@H](Nc1nc2c(cnn2C2CCCC2)c(=O)[nH]1)C(=O)Nc1ccc(C(F)(F)F)cn1 | –
6 | 195 (≈ 480 µM) | 57 | 9.07 | C[C@@H](Nc1nc2c(cnn2C2CCCC2)c(=O)[nH]1)C(=O)Nc1ccc2[nH]cnc2c1 | Stability [6]: 54.7%
7 | 0.1 (≈ 0.237 µM) | – | – | C[C@@H](Nc1nc2c(cnn2C2CCCC2)c(=O)[nH]1)C(=O)Nc1ccc2c(c1)CNC2=O | –
8 | 103 (≈ 253 µM) | 43.4 | 10 | C[C@@H](Nc1nc2c(cnn2C2CCCC2)c(=O)[nH]1)C(=O)Nc1ccc2[nH]ncc2c1 | Stability [6]: 47.8%
9 | 0.5 (≈ 1.24 µM) | – | – | C[C@@H](Nc1nc2c(cnn2C2CCCC2)c(=O)[nH]1)C(=O)Nc1cnc(Cl)nc1 | –
10 | 5.1 (≈ 11.7 µM) | – | – | C[C@@H](Nc1nc2c(cnn2C2CCCC2)c(=O)[nH]1)C(=O)Nc1ccc(C(F)(F)F)nc1 | –
11 | 0.1 (≈ 0.247 µM) | – | – | C[C@@H](Nc1nc2c(cnn2C2CCCC2)c(=O)[nH]1)C(=O)Nc1ccc2[nH]ccc2c1 | –
12 | 0.03 (≈ 0.0734 µM) | – | – | C[C@@H](Nc1nc2c(cnn2C2CCCC2)c(=O)[nH]1)C(=O)Nc1ccc2c(c1)COC2 | –
13 | 52 (≈ 135 µM) | 32.8 | 11.8 | C[C@@H](Nc1nc2c(cnn2C2CCCC2)c(=O)[nH]1)C(=O)Nc1ccc(F)nc1 | Stability [6]: 41%
14 | 25 (≈ 66.9 µM) | – | – | C[C@@H](Nc1nc2c(cnn2C2CCCC2)c(=O)[nH]1)C(=O)Nc1nccs1 | –
15 | 74 (≈ 182 µM) | 32.6 | 11.8 | C[C@@H](Nc1nc2c(cnn2C2CCCC2)c(=O)[nH]1)C(=O)Nc1ccc2nccn2c1 | Stability [6]: 40.8%
16 | 0.04 (≈ 0.101 µM) | 23.3 | 65.8 | COc1ccc(NC(=O)[C@@H](C)Nc2nc3c(cnn3C3CCCC3)c(=O)[nH]2)cc1 | –
